Measurements published in paper PMC8161026, “Synthesis and Anticancer Activity Evaluation of 5-[2-Chloro-3-(4-nitrophenyl)-2-propenylidene]-4-thiazolidinones” (Molecules, 2021).

Legend:
in vitro = conditions: human
Method: (§1) Another part of our study was to determine the influence of compounds 2f, 2i, 2j, and 2h on normal human blood lymphocytes (Figure 5). […] Thus, normal blood lymphocytes are blood cells, as well as cells of leukemia cell lines, therapeutic index (TI) of compounds 2f, 2h, and 2j was calculated as GI50 (normal blood lymphocyte)/GI50 (leukemia cell line) (Table 5).
(§2) Figure 5 Human lymphocyte viability after 48 h of 2f, 2i, 2j, 2h, and Ciminalum drug exposure was estimated by MTT assay.
(§3) The assay was performed by using 3-(4,5-dimethylthiazole-2-yl)- 2,5-diphenyltetrazolium bromide (MTT). Confluent cells, cultured for 24 h with 0.1, 1, 5, 10, 20, 30, and 100 µM concentrations of studied compounds in 24-well plates were washed with PBS. MTT was dissolved in PBS, and 25 µL were added to each well. Plates were incubated for 4 h at 37 °C in 5% CO2 in an incubator. The medium with MTT was removed, and 1 mL of DMSO was added to the attached cells. Furthermore, cells were incubated for 5–10 min in RT and then 10 µl of Sorensen buffer was added to each well. The absorbance of converted dye in living cells was measured at a wavelength of 570 nm. The cell viability of breast cancer cells, gastric cancer cells, and human colon cancer cells cultured in the presence of ligands was calculated as percent of control cells.
(§4) First, 20 mL of venous blood was taken from volunteers (Ethical protocol number 2, 27 January 2019) and collected in the presence of 200 μL of undiluted fresh heparin (1/100). Sterile blood was diluted 2 times with 0.9% NaCl under the sterile conditions. Isolation of lymphocytes was performed in a density gradient of ficol-verografin using the protocol of the manufacturer (Lympoprep, NYCOMED PHARMA AS, Oslo Norway). The resulting lymphocytes were resuspended in the RPMI-1640 medium and cultured for several days (up to 10 days). To separate the lymphocytes from the monocytes, cell suspension was left for 24 h. After 24 h of culture, monocytes were attached, while lymphocytes were transferred to a fresh Falcon tube (15 mL). To stimulate the proliferation of lymphocytes, they were cultured on CD3+ antibody-coated plastic plate in the RPMI-1640 medium supplemented with 20% FBS.

AGS (gastric cancer) = assay: MTT cell viability assay; format: cell-based; conditions: Homo sapiens, 24 h
Method: (§5) In the second stage of the research, Ciminalum-thiazolidinone hybrids were investigated for antitumor activity on the lines of gastric cancer (AGS), human colon cancer (DLD-1), and breast cancers (MCF-7 and MDA-MB-231). The study was performed in the MTT assay according to the method described previously. The studied cancer line was sensitive to the action of the studied compounds that inhibited its growth in micromolar ranges of GI50. The hit compounds that inhibited the growth of all four cancer lines with the lowest GI50 values were [5-[2-chloro-3-(4-nitrophenyl)prop-2-enylidene]-rhodanines 2c, 2d, 2h, and 2i (Table 4).

[1] = tested on: DLD-1 (human colon cancer); assay: MTT cell viability assay; format: cell-based; conditions: DLD-1, MTT, 24 h
Method: as §5

MCF-7 (breast cancer) = assay: MTT cell viability assay; format: cell-based; conditions: Homo sapiens, MCF7; MCF-7, MTT, 24 h
Method: as §5

[2] = tested on: MDA-MB-231 (breast cancer); assay: MTT cell viability assay; format: cell-based; conditions: Homo sapiens; MDA-MB-231, MTT, 24 h
Method: as §5

[3] = tested on: normal human blood lymphocytes; assay: in vitro
Method: as §1, §2, §3, §4

[4] = tested on: breast cancer lines MCF-7 and MDA-MB-231; assay: MTT cell viability assay, both breast cancer lines; format: cell-based; conditions: Homo sapiens; MCF-7 and MDA-MB-231, MTT; read-out: GI50 level
Method: as §5

Jurkat T-cells = tested on: Jurkat T-cells; set-up: method as in doi:10.7124/bc.00003D; conditions: cited from earlier work

Row | GI50 at 48 h (in vitro) | GI50 (AGS (gastric cancer)) | GI50 [1] | GI50 (MCF-7 (breast cancer)) | GI50 [2] | melting point | GI50 [4] | SMILES | toxicity toward normal human blood lymphocytes [3] | caspase-7 activation (Jurkat T-cells) | cleavage of PARP-1 and DFF45 (Jurkat T-cells)
1 | 10.4 µM |  |  |  |  |  |  | O=C/C(Cl)=C/c1ccc([N+](=O)[O-])cc1 [Ciminalum, (2Z)-2-chloro-3-(4-nitrophenyl)prop-2-enal, reference compound] |  |  | 
2 |  | 18.7 µM | 14 µM | 18 µM | 13.9 µM | > 270 °C |  | O=C1NC(=O)/C(=C/C(Cl)=C/c2ccc([N+](=O)[O-])cc2)S1 [Compound 2a, 5-[(Z,2Z)-2-Chloro-3-(4-nitrophenyl)-2-propenylidene]-2,4-thiazolidinedione] |  |  | 
3 |  | 4.08 µM | 5.47 µM | 4.45 µM | 3.11 µM | > 230 °C |  | O=C(NN1C(=O)/C(=C/C(Cl)=C/c2ccc([N+](=O)[O-])cc2)SC1=S)c1csc2c1CCCC2 [Compound 2d, 5-[(Z,2Z)-2-Chloro-3-(4-nitrophenyl)-2-propenylidene]-4-oxo-3-(4,5,6,7-tetrahydrobenzo[b]thiophen-3-ylcarboxamido)-2-thioxo-4-thiazolidinone] |  |  | 
4 |  | 17.1 µM | 16 µM | 17.9 µM | 15.8 µM | 257 to 258 °C |  | O=C(Cc1ccccc1Nc1c(Cl)cccc1Cl)NN1C(=O)/C(=C/C(Cl)=C/c2ccc([N+](=O)[O-])cc2)SC1=S [Compound 2e, N^1-{5-[(Z,2Z)-2-Chloro-3-(4-nitrophenyl)-2-propenylidene]-4-oxo-2-thioxothiazolidin-3-yl}-2-[2-(2,6-dichloroanilino)phenyl]acetamide] |  |  | 
5 |  | 18 µM | 27.5 µM | 26.4 µM | 16.8 µM | > 260 °C |  | O=C1/C(=C/C(Cl)=C/c2ccc([N+](=O)[O-])cc2)SC(=S)N1CCS(=O)(=O)O [Compound 2g, 2-{5-[(Z,2Z)-2-Chloro-3-(4-nitrophenyl)-2-propenylidene]-4-oxo-2-thioxothiazolidin-3-yl}-1-ethanesulfonic acid] | low toxicity |  | 
6 | > 100 µM | 3.2 µM | 9.22 µM | 1.73 µM | 0.95 µM | > 220 °C | 950 to 1740 nM | O=C(O)CCCCCN1C(=O)/C(=C/C(Cl)=C/c2ccc([N+](=O)[O-])cc2)SC1=S [Compound 2i, 6-{5-[(Z,2Z)-2-Chloro-3-(4-nitrophenyl)-2-propenylidene]-4-oxo-2-thioxothiazolidin-3-yl}hexanoic acid] | low toxicity |  | 
7 |  | 13.1 µM | 10 µM | 18.1 µM | 15.3 µM | 220 to 222 °C |  | O=C(O)CC(C(=O)O)N1C(=O)/C(=C/C(Cl)=C/c2ccc([N+](=O)[O-])cc2)SC1=S (stereo not drawn) [Compound 2k, 2-{5-[(Z,2Z)-2-Chloro-3-(4-nitrophenyl)-2-propenylidene]-4-oxo-2-thioxothiazolidin-3-yl}succinic acid] |  |  | 
8 |  | 12.6 µM | 9.19 µM | 21.2 µM | 17.5 µM | 205 to 207 °C |  | O=C(O)CCC(C(=O)O)N1C(=O)/C(=C/C(Cl)=C/c2ccc([N+](=O)[O-])cc2)SC1=S (stereo not drawn) [Compound 2l, 2-{5-[(Z,2Z)-2-Chloro-3-(4-nitrophenyl)-2-propenylidene]-4-oxo-2-thioxothiazolidin-3-yl}pentanedioic acid] |  |  | 
9 |  |  |  |  |  |  |  | O=C1NC(=N/c2ccc(F)cc2)/C(=C/C(Cl)=C/c2ccc([N+](=O)[O-])cc2)S1 [III] |  | weak | weak
